Experimental findings from article PMC4547393, “Resin-acid derivatives as potent electrostatic openers of voltage-gated K channels and suppressors of neuronal excitability” (Scientific Reports, 2015) are described below.

Common to all, as to format: cell-based
Assay [1] has as its target T1, 3R Shaker K channel (Drosophila melanogaster, UniProt P08510, DEL6-46/M356R/A359R).
T1 construct: gene Sh
Kind of assay: two-electrode voltage clamp in Xenopus oocytes, G(V) shift at […]. (In general: Two-electrode voltage clamp holds a large cell at a set potential and records current.)

Assay [2] deals with T2, Shaker K channel (WT) (Drosophila melanogaster, UniProt P08510, DEL6-46).
T2 construct: gene Sh
Kind of assay: two-electrode voltage clamp in Xenopus oocytes, G(V) shift and pH dependence at […].

In assay [3] the target is T3, 3R Shaker K channel (Drosophila melanogaster, UniProt P08510, A359R/DEL6-46/M356R).
T3 construct: gene Sh
In words: two-electrode voltage clamp in Xenopus oocytes, G(V) shift; also patch clamp in CHO-K1 cells.

Assay [4] concerns the target T2, Shaker K channel (WT). In words: two-electrode voltage clamp in Xenopus oocytes, G(V) shift at […].
Assay [5] has as its target T3, 3R Shaker K channel. Kind of assay: two-electrode voltage clamp in Xenopus oocytes, G(V) shift.

Each structure is given as a SMILES string.

T1 sequence (P08510 with tags, fused parts or gaps DEL6-46/M356R/A359R): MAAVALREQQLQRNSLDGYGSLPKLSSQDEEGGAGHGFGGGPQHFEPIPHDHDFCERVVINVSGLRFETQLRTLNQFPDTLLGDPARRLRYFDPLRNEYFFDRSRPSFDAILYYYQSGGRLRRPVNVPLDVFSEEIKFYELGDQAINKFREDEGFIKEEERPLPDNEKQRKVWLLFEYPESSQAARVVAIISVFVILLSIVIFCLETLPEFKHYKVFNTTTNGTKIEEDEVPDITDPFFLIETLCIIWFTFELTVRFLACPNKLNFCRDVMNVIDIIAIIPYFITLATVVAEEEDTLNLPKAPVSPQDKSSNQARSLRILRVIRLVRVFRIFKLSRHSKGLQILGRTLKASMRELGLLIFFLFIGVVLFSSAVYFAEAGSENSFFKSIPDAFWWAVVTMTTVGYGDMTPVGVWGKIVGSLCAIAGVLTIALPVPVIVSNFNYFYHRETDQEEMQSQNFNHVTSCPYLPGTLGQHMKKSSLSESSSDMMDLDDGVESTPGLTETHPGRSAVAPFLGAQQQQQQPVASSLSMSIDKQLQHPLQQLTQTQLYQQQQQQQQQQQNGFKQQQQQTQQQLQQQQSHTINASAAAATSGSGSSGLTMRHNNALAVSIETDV
T3 sequence (P08510 with tags, fused parts or gaps DEL6-46/M356R/A359R): as above
T2 sequence (P08510 with tags, fused parts or gaps DEL6-46): as the sequence (P08510 with tags, fused parts or gaps DEL6-46/M356R/A359R) above, with R315M, R318A counted along it

For `C=CCON=C1C[C@H]2[C@](C)(C(=O)O)CCC[C@]2(C)c2ccc(C(C)C)cc21` [compound 19, Compound 19], the “two-electrode voltage clamp in Xenopus oocytes, G(V) shift at 100 μM” value on 3R Shaker K channel [1] is recorded as −17.8 ± 1.9 mV. What is called EC50 is the concentration needed to bring the measured effect to its halfway point. For `CON=C1C[C@H]2[C@](C)(C(=O)O)CCC[C@]2(C)c2cc(Br)c(C(C)C)cc21` [compound 33, Compound 33], the “two-electrode voltage clamp in Xenopus oocytes, G(V) shift and pH dependence at” value on Shaker K channel (WT) [2] was “For all three compounds, the induced shifts are smaller on Shaker WT compared to Shaker 3R K channels”. In addition, the EC50 on 3R Shaker K channel [3] stood at 37 µM. Consider `CC(C)C1=CC2=CC[C@@H]3[C@](C)(CCC[C@@]3(C)C(=O)O)[C@H]2CC1` [compound 3, abietic acid], for which the “two-electrode voltage clamp in Xenopus oocytes, G(V) shift at 100 μM” value on 3R Shaker K channel [1] is listed as −11.2 ± 2 mV. In the case of `C[C@@]1(C(=O)O)CCC[C@]2(C)c3cc(Cl)c(Cl)c(Cl)c3CC[C@@H]12` [compound 77, Compound 77], on 3R Shaker K channel [3], the EC50 was 37 µM. Further, on Shaker K channel (WT) [4], the “two-electrode voltage clamp in Xenopus oocytes, G(V) shift at 100 μM” value was −21.2 mV. In the case of `C=C[C@@]1(C)CC[C@H]2C(=CC[C@@H]3[C@]2(C)CCC[C@@]3(C)C(=O)O)C1` [compound 2, isopimaric acid], the “two-electrode voltage clamp in Xenopus oocytes, G(V) shift at 100 μM” value at 3R Shaker K channel [1] was −15.9 ± 1.8 mV.

As for `CC(C)c1ccc2c(c1)CC[C@H]1[C@](C)(C(=O)O)CCC[C@]21C` [compound 4, dehydroabietic acid], the EC50 on 3R Shaker K channel [5] was determined as 89 µM. Further, the “two-electrode voltage clamp in Xenopus oocytes, G(V) shift at 100 μM” value on Shaker K channel (WT) [4] is −2.3 mV.
